Measured values taken from patent US11046716B2, “Beta-lactamase inhibitors” (priority 2015, dated 2021).

What was measured:
SHV-5 = target: T1, SHV-5 (Klebsiella pneumoniae, UniProt P0A3M1); assay: β-lactamase enzyme inhibition assay, SHV-5 (cefotaxime substrate); assay type: biochemical
T1 construct: made in house; host or cells: E. coli BL21(DE3)
Method in brief: (§1)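 Untagged enzyme from E. coli BL21(DE3), purified by Capto S then Superdex 75; 15 min 37 °C preincubation with inhibitor; KPC-2 read with imipenem at 300 nm, SHV-5 with cefotaxime at 260 nm, OXA-1 with nitrocefin 100 μM final at 486 nm; 10 min kinetic read; IC50 vs uninhibited wells.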

KPC-2 = target: T2, KPC-2 (Klebsiella pneumoniae, UniProt Q9F663); assay: β-lactamase enzyme inhibition assay, KPC-2 (imipenem substrate); assay type: biochemical; details: Class A; imipenem substrate, 300 nm; read-out: KPC-2
T2 construct: made in house; host or cells: E. coli BL21(DE3)
T2 sequence (Q9F663 25-293, looked up): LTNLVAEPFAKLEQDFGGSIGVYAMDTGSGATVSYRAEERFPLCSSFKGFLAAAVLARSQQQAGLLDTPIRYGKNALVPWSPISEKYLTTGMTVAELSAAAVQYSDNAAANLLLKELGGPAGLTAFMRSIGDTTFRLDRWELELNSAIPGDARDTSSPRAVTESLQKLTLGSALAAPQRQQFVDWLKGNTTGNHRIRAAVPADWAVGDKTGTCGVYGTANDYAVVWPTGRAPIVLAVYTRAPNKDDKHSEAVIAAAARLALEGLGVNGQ
Method in brief: as §1

VIM-2 = target: T3, VIM-2 (Escherichia coli, UniProt Q5U7L7); assay: β-lactamase enzyme inhibition assay, VIM-2 (nitrocefin substrate); assay type: biochemical; details: Class B; nitrocefin substrate, 486 nm; read-out: VIM-2
T3 construct: made in house; host or cells: E. coli BL21(DE3)
Method in brief: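 Enzyme + inhibitor, 37 °C, 15 min; nitrocefin 100 μM final; A486 read for 10 min. % inhibition vs no-inhibitor wells per concentration; IC50 = concentration halving initial hydrolysis rate.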

AmpC = target: T4, AmpC (Enterobacter cloacae, UniProt P05364); assay: β-lactamase enzyme inhibition assay, p99 AmpC (nitrocefin substrate); assay type: biochemical
T4 construct: made in house; host or cells: E. coli BL21(DE3)
T4 sequence (P05364 21-381): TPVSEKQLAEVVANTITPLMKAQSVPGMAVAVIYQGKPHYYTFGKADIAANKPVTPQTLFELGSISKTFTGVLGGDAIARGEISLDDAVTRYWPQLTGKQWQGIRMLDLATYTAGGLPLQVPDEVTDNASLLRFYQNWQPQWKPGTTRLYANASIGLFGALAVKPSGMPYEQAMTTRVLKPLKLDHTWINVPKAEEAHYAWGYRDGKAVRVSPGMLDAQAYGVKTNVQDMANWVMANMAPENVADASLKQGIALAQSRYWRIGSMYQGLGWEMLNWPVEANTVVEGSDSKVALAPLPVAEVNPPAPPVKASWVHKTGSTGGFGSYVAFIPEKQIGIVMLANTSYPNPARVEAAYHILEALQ
Method in brief: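 Untagged enzyme from E. coli BL21(DE3), purified by Capto S then Superdex 75; 15 min 37 °C preincubation with inhibitor; 10 min kinetic read; IC50 vs uninhibited wells.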

OXA-48 = OXA-48 (UniProt Q6XEC0); assay: β-lactamase enzyme inhibition assay, Class D oxacillinase; assay type: biochemical; details: read-out: OXA-48
[1] = system: E. coli expressing the Class A Extended Spectrum Beta-Lactamase (ESBL) CTX-M-15; assay: Broth microdilution MIC assay with ceftazidime, E. coli CTX-M-15; assay type: cell-based; details: Fixed CAZ (ceftazidime) 4 μg/mL; E. coli ESBL4 CTX-M-15
Method in brief: (§2)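 CAMHB; cpd 2-fold serial dilution, 16–0.125 μg/mL final; β-lactam static 4 μg/ml; CLSI inoculation; 16–20 h, 37° C; MIC read by eye.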

[2] = system: E. cloacae expressing the Class C P99; assay: Broth microdilution MIC assay with ceftazidime, E. cloacae P99; assay type: cell-based; details: Fixed CAZ (ceftazidime) 4 μg/mL; E. cl. 144200 p99 AmpC
Description: To determine the ability of test compounds to potentiate the inhibition of the growth of bacterial strains that produce beta-lactamase enzymes in the presence of a β-lactam antibiotic, classic cell based broth microdilution MIC assays were employed. Six bacteria strains producing beta-lactamase enzymes were used: E. coli expressing the Class A Extended Spectrum Beta-Lactamase (ESBL) CTX-M-15, E. cloacae expressing the Class C P99, K. pneumoniae expressing the Class A carbapenemase KPC-2, P. aeruginosa expressing the Class B carbapenemase VIM-2, K. pneumoniae expressing the class A carbapenemase KPC-2 and the class B carbapenemase VIM-4, and K. pneumoniae producing the Class D carbapenemase OXA-48. The assay was conducted in Cation Adjusted Mueller Hinton Broth (CAMHB, BD #212322, BD Diagnostic Systems, Sparks, Md.). Bacteria strains were grown for 3-5 hours in CAMBH broth. Test compounds (Examples 1-94) were added to a microtiter plate in 2-fold serial dilutions in CAMHB in a final concentration range of 16 μg/mL to 0.125 μg/ml. An overlay of CAMHB containing a Beta-lactam was added to the compounds at a final static concentration of 4 μg/ml. […] In addition to the titration of test compounds the MICs of a panel of control beta-lactams is also tested to ensure the strains are behaving consistently from test to test. Once the test compound and antibiotics are added the plates can be inoculated according to CLSI broth microdilution method. After inoculation the plates are incubated for 16-20 hours at 37° C. then the Minimal Inhibitory Concentration (MIC) of the test compound is determined visually.
Using the methodology described above, examples of the current invention were evaluated for their ability to inhibit the growth of β-lactamase-producing bacteria in the presence of a β-lactam antibiotic.

[3] = system: K. pneumoniae expressing the Class A carbapenemase KPC-2; assay: Broth microdilution MIC assay with meropenem, K. pneumoniae KPC-2; assay type: cell-based; details: Fixed Mero (meropenem) 4 μg/mL; K. p. 156319 KPC-3
Method in brief: as §2

[4] = system: P. aeruginosa expressing the Class B carbapenemase VIM-2; assay: Broth microdilution MIC assay with meropenem, P. aeruginosa VIM-2; assay type: cell-based; details: Fixed Mero (meropenem) 4 μg/mL; P. aerug. 2775 VIM-2
Method in brief: as §2

[5] = system: K. pneumoniae expressing the class A carbapenemase KPC-2 and the class B carbapenemase VIM-4; assay: Broth microdilution MIC assay with meropenem, K. pneumoniae KPC-2 and VIM-4; assay type: cell-based; details: Fixed Mero (meropenem) 4 μg/mL; K. p. A-1797 KPC-2 VIM-4
Method in brief: as §2

[6] = system: K. pneumoniae producing the Class D carbapenemase OXA-48; assay: Broth microdilution MIC assay with meropenem, K. pneumoniae OXA-48; assay type: cell-based; details: Fixed Mero (meropenem) 4 μg/mL; K. p. 11978 OXA-48
Method in brief: as §2

T1 sequence (P0A3M1 22-286): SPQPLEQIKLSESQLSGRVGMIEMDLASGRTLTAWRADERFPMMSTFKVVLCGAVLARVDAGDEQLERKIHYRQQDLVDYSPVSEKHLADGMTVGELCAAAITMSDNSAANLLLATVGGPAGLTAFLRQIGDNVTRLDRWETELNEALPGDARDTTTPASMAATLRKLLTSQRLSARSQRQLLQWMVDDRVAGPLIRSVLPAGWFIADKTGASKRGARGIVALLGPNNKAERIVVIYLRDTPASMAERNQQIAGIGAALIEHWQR

Row | SMILES | IC50 (SHV-5) [nM] | IC50 (KPC-2) [nM] | IC50 (VIM-2) [nM] | IC50 (AmpC) [nM] | IC50 (OXA-48) [nM] | MIC (μg/mL) of Exemplary Compounds in presence of fixed β-lactams: E. coli ESBL4 CTX-M-15 [1] | MIC (μg/mL) of Exemplary Compounds in presence of fixed β-lactams: E. cl. 144200 p99 AmpC [2] | MIC (μg/mL) of Exemplary Compounds in presence of fixed β-lactams: K. p. 156319 KPC-3 [3] | MIC (μg/mL) of Exemplary Compounds in presence of fixed β-lactams: P. aerug. 2775 VIM-2 [4] | MIC (μg/mL) of Exemplary Compounds in presence of fixed β-lactams: K. p. A-1797 KPC-2 VIM-4 [5] | MIC (μg/mL) of Exemplary Compounds in presence of fixed β-lactams: K. p. 11978 OXA-48 [6]
1 | O=C(Cn1cc(CO)nn1)N[C@H]1Cc2cccc(C(=O)O)c2OB1O [Example 1, (R)-2-hydroxy-3-(2-(4-(hydroxymethyl)-1H-1,2,3-triazol-1-yl)acetamido)-3,4-dihydro-2H-benzo[e][1,2]oxaborinine-8-carboxylic acid] | < 100 | < 100 | 1000 to 10000 | < 100 | 100 to 1000 | C (C represents an MIC of <1 μg/mL) | C (C represents an MIC of <1 μg/mL) | B (B represents an MIC between 1 and 16 μg/mL inclusive) | B (B represents an MIC between 1 and 16 μg/mL inclusive) | B (B represents an MIC between 1 and 16 μg/mL inclusive) | B (B represents an MIC between 1 and 16 μg/mL inclusive)
2 | NCc1cn(CC(=O)N[C@H]2Cc3cccc(C(=O)O)c3OB2O)nn1 [Example 2, (R)-3-(2-(4-(aminomethyl)-1H-1,2,3-triazol-1-yl)acetamido)-2-hydroxy-3,4-dihydro-2H-benzo[e][1,2]oxaborinine-8-carboxylic acid] | < 100 | < 100 | < 100 | < 100 | 100 to 1000 | C (C represents an MIC of <1 μg/mL) | C (C represents an MIC of <1 μg/mL) | C (C represents an MIC of <1 μg/mL) | C (C represents an MIC of <1 μg/mL) | C (C represents an MIC of <1 μg/mL) | B (B represents an MIC between 1 and 16 μg/mL inclusive)
3 | N=C(N)NCc1cn(CC(=O)N[C@H]2Cc3cccc(C(=O)O)c3OB2O)nn1 [Example 3, (R)-3-(2-(4-(guanidinomethyl)-1H-1,2,3-triazol-1-yl)acetamido)-2-hydroxy-3,4-dihydro-2H-benzo[e][1,2]oxaborinine-8-carboxylic acid] | < 100 | < 100 | < 100 | < 100 | < 100 | C (C represents an MIC of <1 μg/mL) | C (C represents an MIC of <1 μg/mL) | C (C represents an MIC of <1 μg/mL) | C (C represents an MIC of <1 μg/mL) | C (C represents an MIC of <1 μg/mL) | C (C represents an MIC of <1 μg/mL)
4 | CC(C)NCc1cn(CC(=O)N[C@H]2Cc3cccc(C(=O)O)c3OB2O)nn1 [Example 4, (R)-2-hydroxy-3-(2-(4-((isopropylamino)methyl)-1H-1,2,3-triazol-1-yl)acetamido)-3,4-dihydro-2H-benzo[e][1,2]oxaborinine-8-carboxylic acid] | 100 to 1000 | 100 to 1000 | < 100 | < 100 | < 100 | C (C represents an MIC of <1 μg/mL) | C (C represents an MIC of <1 μg/mL) | B (B represents an MIC between 1 and 16 μg/mL inclusive) | C (C represents an MIC of <1 μg/mL) | C (C represents an MIC of <1 μg/mL) | B (B represents an MIC between 1 and 16 μg/mL inclusive)
5 | CC(C)NCCc1cn(CC(=O)N[C@H]2Cc3cccc(C(=O)O)c3OB2O)nn1 [Example 7, (R)-2-hydroxy-3-(2-(4-(2-(isopropylamino)ethyl)-1H-1,2,3-triazol-1-yl)acetamido)-3,4-dihydro-2H-benzo[e][1,2]oxaborinine-8-carboxylic acid] | 100 to 1000 | 1000 to 10000 | 1000 to 10000 | < 100 | 1000 to 10000 | C (C represents an MIC of <1 μg/mL) | C (C represents an MIC of <1 μg/mL) | C (C represents an MIC of <1 μg/mL) | C (C represents an MIC of <1 μg/mL) | B (B represents an MIC between 1 and 16 μg/mL inclusive) | B (B represents an MIC between 1 and 16 μg/mL inclusive)
6 | O=C(Cn1nnc(CO)c1CO)N[C@H]1Cc2cccc(C(=O)O)c2OB1O [Example 8, (R)-3-(2-(4,5-bis(hydroxymethyl)-1H-1,2,3-triazol-1-yl)acetamido)-2-hydroxy-3,4-dihydro-2H-benzo[e][1,2]oxaborinine-8-carboxylic acid] | < 100 | 100 to 1000 | 1000 to 10000 | 1000 to 10000 | 100 to 1000 | C (C represents an MIC of <1 μg/mL) | C (C represents an MIC of <1 μg/mL) | B (B represents an MIC between 1 and 16 μg/mL inclusive) | B (B represents an MIC between 1 and 16 μg/mL inclusive) | B (B represents an MIC between 1 and 16 μg/mL inclusive) | B (B represents an MIC between 1 and 16 μg/mL inclusive)
7 | O=C(Cn1cc(-c2cccnc2)nn1)N[C@H]1Cc2cccc(C(=O)O)c2OB1O [Example 12, (R)-2-hydroxy-3-(2-(4-(pyridin-3-yl)-1H-1,2,3-triazol-1-yl)acetamido)-3,4-dihydro-2H-benzo[e][1,2]oxaborinine-8-carboxylic acid] | < 100 | < 100 | 1000 to 10000 | < 100 | 100 to 1000 | C (C represents an MIC of <1 μg/mL) | C (C represents an MIC of <1 μg/mL) | B (B represents an MIC between 1 and 16 μg/mL inclusive) | B (B represents an MIC between 1 and 16 μg/mL inclusive) | A (A represents an MIC>16 μg/mL) | B (B represents an MIC between 1 and 16 μg/mL inclusive)
